Source: US8354539B2, “Indole derivatives as IKK2 inhibitors” (Glaxo Group Limited, priority 2009, dated 2013)

Tested on: polychromatic erythrocytes from rat bone marrow
Assay: Bone marrow micronucleus assay in rats
Conditions: 20 mg/kg/day oral, once only, male rats, positive control
Protocol: The objective of this study was to assess the potential of 5-[2-(1-methylethyl)-2,3-dihydro-1H-isoindol-5-yl]-3-(1-{[2-(methyloxy)ethyl]sulfonyl}-4-piperidinyl)-1H-indole-7-carboxamide in induce structural chromosomal damage and/or aneuploidy in vivo, in polychromatic erythrocytes from rat bone marrow, when administered to rats for two consecutive days.
Crl: CD(SD) rats were used in this study.
Doses of 500, 1000, 2000 mg/kg/day of 5-[2-(1-methylethyl)-2,3-dihydro-1H-isoindol-5-yl]-3-(1-{[2-(methyloxy)ethyl]sulfonyl}-4-piperidinyl)-1H-indole-7-carboxamide, or vehicle (0.5% (w/v) aqueous hydroxypropylmethylcellulose containing 0.1% (w/v) Tween 80), were given orally (by gavage) to groups of 3 male and 3 female rats. […]
Doses of 1000 or 2000 mg/kg/day—5-[2-(1-methylethyl)-2,3-dihydro-1H-isoindol-5-yl]-3-(1-{[2-(methyloxy)ethyl]sulfonyl}-4-piperidinyl)-1H-indole-7-carboxamide or vehicle (0.5% (w/v) aqueous hydroxypropylmethylcellulose containing 0.1% (w/v) Tween 80) were given orally, by gavage, on two consecutive days to groups of 6 male rats. […] Smears were stained with acridine orange prior to analysis with fluorescense microscopy to determine the proportion of polychromatic erythrocytes in the total erythrocyte count (% PCE) and the number of micronucleated polychromatic erythrocytes (MPCE) per 2000 PCE analysed.

O=P1(N(CCCl)CCCl)NCCCO1 (centres unmarked) [Cyclophosphamide, cyclophosphamide]
Group Mean % PCE: 46% | Group Mean MPCE: 51.87 per 2000 PCE analysed
